Test: Solubility in several solvents tested (for NMR)
Type: physicochemical
Conditions: not given
Description: Synthesis of didodecyl galactaramide. Diethyl galacterate (2.66 g, 10.0 mmol) was added to a solution of dodecylamine (3.75 g, 20.5 mmol) in EtOH (50 ml). After 72 hours stirring, the precipitate was filtered (yield 4.87 g, 8.9 mmol, 89%).
Synthesis of dicyclododecyl galactaramide. Diethyl galacterate (2.67 15 g, 10.0 mmol) was added to a solution of cyclododecylamine (3.78 g, 20.7 mmol) in EtOH (50 ml). After 48 hours stirring, the precipitate was filtered and washed with H2O and EtOH (yield 2.43 g, 4.5 mmol, 45%).

Row | Compound | Solubility in several solvents tested
1 | CCCCCCCCCCCCNC(=O)[C@@H](O)[C@H](O)[C@H](O)[C@@H](O)C(=O)NCCCCCCCCCCCC [Example 14, didodecyl galactaramide] | low solubility
2 | O=C(NC1CCCCCCCCCCC1)[C@@H](O)[C@H](O)[C@H](O)[C@@H](O)C(=O)NC1CCCCCCCCCCC1 [Example 17, dicyclododecyl galactaramide] | low solubility

Test: Solvent scope of N,N′-dialkylaldaramides (1%) or N,N′-dialkylpentaramides (1%): gelation/solubility behaviour in solvents
Type: physicochemical
Set-up: key: g = gelation; s = soluble; p = precipitates; c = crystallizes; ns = not soluble; v = viscous; g* = unstable gel, precipitates; cg = crystalline gel
Conditions: 1% gelling agent; 1,2-dichloroethane
From the text: It will be understood that the use of the present gelling agents or thickeners to prepare a gel or to thicken a composition is also encompassed by the invention. As is well known, gelling behavior of compounds or compositions is highly unpredictable. […] Preferably, the gelling phenomenon is thermo reversible.
Preferred examples include aromatic and nonaromatic hydrocarbons, alcohols, ethers, esters, aldehydes, alkanoic acids, epoxides, amines, halogenated hydrocarbons, silicon oils, vegetable oils, phosphoric esters, sulfoxides, water and mixtures thereof. In order to obtain a gel, the gelling agent or thickener is preferably mixed with the composition to be transformed to a gel in an amount of between 0.01 and 50 wt. %, based on the weight of the composition. In a preferred embodiment, the mixture of the gelling agent or thickener and the composition is heated to allow for an even better gel formation or thickening. Typically, the heating will involve raising the temperature of the mixture to about 30-175° C. until a clear solution is obtained. In an alternative embodiment, the gelling agent is first dissolved in a polar or apolar solvent and then added to or sprayed into a composition or solvent to be converted into a gel.
Solvent scope of N,N′-dialkylaldaramides (1%) or N,N′-dialkylpentaramides (1%) 1-24 refers to the compounds prepared in Examples 1-23)

Row | Compound | Gelation/solubility behaviour in 1,2-dichloroethane
3 | CCCCCCCCCCCCNC(=O)[C@@H](O)[C@H](O)[C@H](O)[C@@H](O)C(=O)NCCCCCCCCCCCC [Example 14, didodecyl galactaramide] | ns
4 | O=C(NC1CCCCCCCCCCC1)[C@@H](O)[C@H](O)[C@H](O)[C@@H](O)C(=O)NC1CCCCCCCCCCC1 [Example 17, dicyclododecyl galactaramide] | ns
5 | CO[C@@H]([C@H](O)[C@H](O)C(=O)NC1CCCCCCCCCCC1)[C@@H](O)C(=O)NC1CCCCCCCCCCC1 [Example 22, 3-O-methyl-dicyclododecyl D-glucaramide] | p
6 | dicyclohexyl galactaramide [Example 7] | ns

Same assay, conditions: 1% gelling agent; 2-methoxyethanol

Row | Compound | Gelation/solubility behaviour in 2-methoxyethanol
7 | O=C(NC1CCCCCCCCCCC1)[C@@H](O)[C@H](O)[C@H](O)[C@@H](O)C(=O)NC1CCCCCCCCCCC1 [Example 17, dicyclododecyl galactaramide] | ns
8 | O=C(NC1CCCCC1)[C@@H](O)[C@@H](O)[C@H](O)[C@@H](O)C(=O)NC1CCCCCCCCCCC1 [Example 23, N1-cyclododecyl, N6-cyclohexyl D-glucaramide] | p

Same assay, conditions: 1% gelling agent; 2-octanol

Row | Compound | Gelation/solubility behaviour in 2-octanol
9 | CCCCCCCCCCCCNC(=O)[C@@H](O)[C@H](O)[C@H](O)[C@@H](O)C(=O)NCCCCCCCCCCCC [Example 14, didodecyl galactaramide] | ns
10 | O=C(NC1CCCCCCCCCCC1)[C@@H](O)[C@H](O)[C@H](O)[C@@H](O)C(=O)NC1CCCCCCCCCCC1 [Example 17, dicyclododecyl galactaramide] | ns
11 | CO[C@@H]([C@H](O)[C@H](O)C(=O)NC1CCCCCCCCCCC1)[C@@H](O)C(=O)NC1CCCCCCCCCCC1 [Example 22, 3-O-methyl-dicyclododecyl D-glucaramide] | p
12 | dicyclohexyl galactaramide [Example 7] | ns

Same assay, conditions: 1% gelling agent; 2-propanol

Row | Compound | Gelation/solubility behaviour in 2-propanol
13 | CCCCCCCCCCCCNC(=O)[C@@H](O)[C@H](O)[C@H](O)[C@@H](O)C(=O)NCCCCCCCCCCCC [Example 14, didodecyl galactaramide] | ns
14 | O=C(NC1CCCCCCCCCCC1)[C@@H](O)[C@H](O)[C@H](O)[C@@H](O)C(=O)NC1CCCCCCCCCCC1 [Example 17, dicyclododecyl galactaramide] | ns
15 | CO[C@@H]([C@H](O)[C@H](O)C(=O)NC1CCCCCCCCCCC1)[C@@H](O)C(=O)NC1CCCCCCCCCCC1 [Example 22, 3-O-methyl-dicyclododecyl D-glucaramide] | p
16 | dicyclohexyl galactaramide [Example 7] | c

Same assay, conditions: 1% gelling agent; Cyclohexane

Row | Compound | Gelation/solubility behaviour in Cyclohexane
17 | CCCCCCCCCCCCNC(=O)[C@@H](O)[C@H](O)[C@H](O)[C@@H](O)C(=O)NCCCCCCCCCCCC [Example 14, didodecyl galactaramide] | ns
18 | O=C(NC1CCCCCCCCCCC1)[C@@H](O)[C@H](O)[C@H](O)[C@@H](O)C(=O)NC1CCCCCCCCCCC1 [Example 17, dicyclododecyl galactaramide] | ns
19 | CO[C@@H]([C@H](O)[C@H](O)C(=O)NC1CCCCCCCCCCC1)[C@@H](O)C(=O)NC1CCCCCCCCCCC1 [Example 22, 3-O-methyl-dicyclododecyl D-glucaramide] | g
20 | O=C(NC1CCCCC1)[C@@H](O)[C@@H](O)[C@H](O)[C@@H](O)C(=O)NC1CCCCCCCCCCC1 [Example 23, N1-cyclododecyl, N6-cyclohexyl D-glucaramide] | p
21 | dicyclohexyl galactaramide [Example 7] | ns

Same assay, conditions: 1% gelling agent; Dimethylsulfoxide

Row | Compound | Gelation/solubility behaviour in Dimethylsulfoxide
22 | CCCCCCCCCCCCNC(=O)[C@@H](O)[C@H](O)[C@H](O)[C@@H](O)C(=O)NCCCCCCCCCCCC [Example 14, didodecyl galactaramide] | ns
23 | O=C(NC1CCCCCCCCCCC1)[C@@H](O)[C@H](O)[C@H](O)[C@@H](O)C(=O)NC1CCCCCCCCCCC1 [Example 17, dicyclododecyl galactaramide] | ns
24 | CO[C@@H]([C@H](O)[C@H](O)C(=O)NC1CCCCCCCCCCC1)[C@@H](O)C(=O)NC1CCCCCCCCCCC1 [Example 22, 3-O-methyl-dicyclododecyl D-glucaramide] | p
25 | dicyclohexyl galactaramide [Example 7] | c

Same assay, conditions: 1% gelling agent; Ethanol

Row | Compound | Gelation/solubility behaviour in Ethanol
26 | CCCCCCCCCCCCNC(=O)[C@@H](O)[C@H](O)[C@H](O)[C@@H](O)C(=O)NCCCCCCCCCCCC [Example 14, didodecyl galactaramide] | ns
27 | O=C(NC1CCCCCCCCCCC1)[C@@H](O)[C@H](O)[C@H](O)[C@@H](O)C(=O)NC1CCCCCCCCCCC1 [Example 17, dicyclododecyl galactaramide] | ns
28 | CO[C@@H]([C@H](O)[C@H](O)C(=O)NC1CCCCCCCCCCC1)[C@@H](O)C(=O)NC1CCCCCCCCCCC1 [Example 22, 3-O-methyl-dicyclododecyl D-glucaramide] | p
29 | dicyclohexyl galactaramide [Example 7] | c

Same assay, conditions: 1% gelling agent; Hexadecane

Row | Compound | Gelation/solubility behaviour in Hexadecane
30 | CCCCCCCCCCCCNC(=O)[C@@H](O)[C@H](O)[C@H](O)[C@@H](O)C(=O)NCCCCCCCCCCCC [Example 14, didodecyl galactaramide] | ns
31 | O=C(NC1CCCCCCCCCCC1)[C@@H](O)[C@H](O)[C@H](O)[C@@H](O)C(=O)NC1CCCCCCCCCCC1 [Example 17, dicyclododecyl galactaramide] | ns
32 | CO[C@@H]([C@H](O)[C@H](O)C(=O)NC1CCCCCCCCCCC1)[C@@H](O)C(=O)NC1CCCCCCCCCCC1 [Example 22, 3-O-methyl-dicyclododecyl D-glucaramide] | ns
33 | dicyclohexyl galactaramide [Example 7] | ns

Same assay, conditions: 1% gelling agent; Toluene

Row | Compound | Gelation/solubility behaviour in Toluene
34 | CCCCCCCCCCCCNC(=O)[C@@H](O)[C@H](O)[C@H](O)[C@@H](O)C(=O)NCCCCCCCCCCCC [Example 14, didodecyl galactaramide] | ns
35 | O=C(NC1CCCCCCCCCCC1)[C@@H](O)[C@H](O)[C@H](O)[C@@H](O)C(=O)NC1CCCCCCCCCCC1 [Example 17, dicyclododecyl galactaramide] | ns
36 | CO[C@@H]([C@H](O)[C@H](O)C(=O)NC1CCCCCCCCCCC1)[C@@H](O)C(=O)NC1CCCCCCCCCCC1 [Example 22, 3-O-methyl-dicyclododecyl D-glucaramide] | p
37 | dicyclohexyl galactaramide [Example 7] | ns

Same assay, conditions: 1% gelling agent; Water

Row | Compound | Gelation/solubility behaviour in Water
38 | CCCCCCCCCCCCNC(=O)[C@@H](O)[C@H](O)[C@H](O)[C@@H](O)C(=O)NCCCCCCCCCCCC [Example 14, didodecyl galactaramide] | ns
39 | O=C(NC1CCCCCCCCCCC1)[C@@H](O)[C@H](O)[C@H](O)[C@@H](O)C(=O)NC1CCCCCCCCCCC1 [Example 17, dicyclododecyl galactaramide] | ns
40 | dicyclohexyl galactaramide [Example 7] | ns

Same assay, conditions: 1% gelling agent; methyl benzoic acid

Row | Compound | Gelation/solubility behaviour in methyl benzoic acid
41 | O=C(NC1CCCCCCCCCCC1)[C@@H](O)[C@H](O)[C@H](O)[C@@H](O)C(=O)NC1CCCCCCCCCCC1 [Example 17, dicyclododecyl galactaramide] | ns
42 | O=C(NC1CCCCC1)[C@@H](O)[C@@H](O)[C@H](O)[C@@H](O)C(=O)NC1CCCCCCCCCCC1 [Example 23, N1-cyclododecyl, N6-cyclohexyl D-glucaramide] | p

Same assay, conditions: 1% gelling agent; methyl laurate

Row | Compound | Gelation/solubility behaviour in methyl laurate
43 | O=C(NC1CCCCCCCCCCC1)[C@@H](O)[C@H](O)[C@H](O)[C@@H](O)C(=O)NC1CCCCCCCCCCC1 [Example 17, dicyclododecyl galactaramide] | ns
44 | O=C(NC1CCCCC1)[C@@H](O)[C@@H](O)[C@H](O)[C@@H](O)C(=O)NC1CCCCCCCCCCC1 [Example 23, N1-cyclododecyl, N6-cyclohexyl D-glucaramide] | p

Same assay, conditions: 1% gelling agent; n-butylacetate

Row | Compound | Gelation/solubility behaviour in n-butylacetate
45 | CCCCCCCCCCCCNC(=O)[C@@H](O)[C@H](O)[C@H](O)[C@@H](O)C(=O)NCCCCCCCCCCCC [Example 14, didodecyl galactaramide] | ns
46 | O=C(NC1CCCCCCCCCCC1)[C@@H](O)[C@H](O)[C@H](O)[C@@H](O)C(=O)NC1CCCCCCCCCCC1 [Example 17, dicyclododecyl galactaramide] | ns
47 | CO[C@@H]([C@H](O)[C@H](O)C(=O)NC1CCCCCCCCCCC1)[C@@H](O)C(=O)NC1CCCCCCCCCCC1 [Example 22, 3-O-methyl-dicyclododecyl D-glucaramide] | p
48 | O=C(NC1CCCCC1)[C@@H](O)[C@@H](O)[C@H](O)[C@@H](O)C(=O)NC1CCCCCCCCCCC1 [Example 23, N1-cyclododecyl, N6-cyclohexyl D-glucaramide] | p
49 | dicyclohexyl galactaramide [Example 7] | ns

Same assay, conditions: 1% gelling agent; p-xylene

Row | Compound | Gelation/solubility behaviour in p-xylene
50 | CCCCCCCCCCCCNC(=O)[C@@H](O)[C@H](O)[C@H](O)[C@@H](O)C(=O)NCCCCCCCCCCCC [Example 14, didodecyl galactaramide] | ns
51 | O=C(NC1CCCCCCCCCCC1)[C@@H](O)[C@H](O)[C@H](O)[C@@H](O)C(=O)NC1CCCCCCCCCCC1 [Example 17, dicyclododecyl galactaramide] | ns
52 | CO[C@@H]([C@H](O)[C@H](O)C(=O)NC1CCCCCCCCCCC1)[C@@H](O)C(=O)NC1CCCCCCCCCCC1 [Example 22, 3-O-methyl-dicyclododecyl D-glucaramide] | p
53 | O=C(NC1CCCCC1)[C@@H](O)[C@@H](O)[C@H](O)[C@@H](O)C(=O)NC1CCCCCCCCCCC1 [Example 23, N1-cyclododecyl, N6-cyclohexyl D-glucaramide] | p
54 | dicyclohexyl galactaramide [Example 7] | ns

Same assay, conditions: 1% gelling agent; silicon oil

Row | Compound | Gelation/solubility behaviour in silicon oil
55 | O=C(NC1CCCCCCCCCCC1)[C@@H](O)[C@H](O)[C@H](O)[C@@H](O)C(=O)NC1CCCCCCCCCCC1 [Example 17, dicyclododecyl galactaramide] | ns
56 | O=C(NC1CCCCC1)[C@@H](O)[C@@H](O)[C@H](O)[C@@H](O)C(=O)NC1CCCCCCCCCCC1 [Example 23, N1-cyclododecyl, N6-cyclohexyl D-glucaramide] | v

Source: patent US6930203B2, “Gelling agents or thickeners” (Applied NanoSystems B.V., priority 2001, dated 2005)
